How the values were obtained:
MT1-MMP [1] = experiment: Activation of proMMP-2 by MT1-MMP on the cell surface of transfected cells (gelatin zymography); format: cell-based, human; settings: transfected COS1 cells, exogenous purified proMMP-2 (FIGS. 2, 20)
Procedure: Gelatin zymography was conducted using an SDS-polyacrylamide gel (PAGE) containing gelatin (0.8 mg/ml) (Itoh, Y. et al., J. Biol. Chem., 273: 24360-24367, 1998). The samples were mixed with a SDS-PAGE loading buffer without a reducing agent and subjected to electrophoretic analysis at room temperature. Enzyme activity was visualized as a negative staining area with Coomassie Brilliant Blue R-250.
The expression construct for FLAG epitope ([…]-tagged MT1-MMP (MT1-F) described in Itoh, Y. et al., J. Biol. Chem., 274: 34260-34266, 1999 was used as a template to generate cDNA for MT1Cat-F (A Ile^318-Gly^535) by the PCR extension method of Ho et al., (Ho, S. N. et al., Gene, 77: 51-59, 1989). The cDNA was subcloned into pSG5 (Stratagene, CA, USA). The PCR-generated fragments were confirmed by DNA sequencing. COS1 cells were transfected with the expression vector for MT1-MMP mutant; MT1-F or MT1Cat-F, or a vector alone (Mock). Expression vectors for each protein were transfected using FuGENE6™ (Roche Molecular Biochemicals) according to the manufacturer's instructions. COS1 cells were seeded in 6-well plates at 1.5×10^5/well at 16 hrs before the transfection was performed. The COS1 cells were maintained in a HAM F-12 medium or DMEM containing 10% fetal bovine serum in a humidified incubator at 37° C. At 48 hrs after the transfection, the cells were collected for use in the experiments. The cells were incubated in the presence of purified proMMP-2 in a serum-free medium (0.25 μg/ml) at 37° C. for 18 hrs. Cell lysates were tested for the expression of the mutants, while culture supernatants were tested for the activation of proMMP-2.
To investigate roles of dimer formation upon the activation of proMMP-2, MT1-F was introduced into COS1 cells together with MT1PEX-F. The co-introduced cells were reacted with exogenously added proMMP-2. Thus, COS1 cells were co-transfected with the MT1-F and MT1PEX-F at indicated DNA amount ratios. Next, purified proMMP-2 (0.25 μg/ml) in a serum-free medium was reacted with the resulting cells at 37° C. for 18 hrs. MMP-2 in the culture supernatant was analyzed by gelatin zymography, and the cell lysates were subjected to Western blotting analysis using a monoclonal anti-FLAG M2 antibody.
(§1) Next, to determine if MT1PEX-F affects the catalytic activity of MT1-MMP on the cell surface or not, tests for gelatin degrading activity and binding capacity to TIMP-2 were conducted using cells transfected in the same incubator. As shown in FIGS. 12 through 14, CHO-K1 cells were transfected with an expression vector for MT1-F, MT1-F/MT1PEX-F or MT1Cat-F, or a vector alone (Mock). The cells were then treated with trypsin, and separately seeded to: DQ™ gelatin-coated cover slips for testing the proteolytic activity (FIG. 13); and 24-well plates for TIMP-2 binding assay (FIG. 12) and for the activation of proMMP-2 (FIG. 14). Transfected cells on the DQ™ gelatin-coated cover slip as shown in FIG. 13 were incubated in a medium at 37° C. for 18 hrs, and the generated fluorescence was analyzed using confocal microscopy. Transfected cells on the 24-well plate as shown in FIG. 12 were incubated with 25 nM ^125I-labeled TIMP-2 in the presence or absence of BB-94 (50 μM) at 0° C. for 1 hr. MT1-MMP specific binding was calculated by subtracting the datum obtained in the presence of BB-94 (50 μM) from each datum derived from the corresponding experiments. […] DQ™ gelatin is a fluorescence-quenched gelatin, which fluoresces upon proteolytic cleavage. […]

MT1-F = molecular target: T1, MT1-F (Homo sapiens, UniProt P50281); experiment: Co-immunoprecipitation with MT1-F using anti-FLAG M2 beads (COS1 cells); format: binding; settings: co-expressed in COS1 cells (FIG. 18)
T1 construct: expressed in transfected cells
Procedure: Transfected COS1 cells were lysed in a RIPA buffer (50 mM Tris-HCl, pH 7.5; 150 mM NaCl; 1% Triton-X100; 1% sodium deoxycolate; 0.1% SDS; 1 mM EDTA; 1 mM PMSF; 10 μM E-64; 0.02% NaN3) at room temperature for 1 hr. Cell lysates were centrifuged at 15,000 rpm in Eppendorf tubes, and the supernatant was reacted with anti-FLAG M2 antibody-conjugated beads (Sigma) at 4° C. for 1 hr. The beads were washed three times with a RIPA buffer and once with Tris-buffered saline (pH 7.5) (TBS). Bound proteins were eluted by the FLAG peptide ([…] 200 μg/ml) (Sigma) in TBS, and subjected to Western blot analysis using a monoclonal mouse anti-FLAG epitope M2 antibody (Sigma), a monoclonal mouse anti-c-Myc antibody (Ab-1) (Oncogene, MA, USA; 1 μg/ml), a rabbit anti-(human MT1Cat) antibody (1:2000), or a monoclonal mouse anti-human MT1PEX antibody (222-1D8) (0.5 μg/ml).
The activation of proMMP-2 by MT1-MMP on the cell surface requires the ternary complex formation of proMMP-2, TIMP-2 and MT1-MMP, and also the presence of TIMP-2-free MT1-MMP near the ternary complex. If TIMP-2-free MT1-MMP and the ternary complex are far apart, the activation should not occur. We thus hypothesized that MT1-MMP would form a homophilic complex on the cell surface to arrange the effective activation complex for MMP-2. […]

MT1-MMP [2] = experiment: In situ gelatin degrading assay (DQ gelatin or Alexa488-conjugated gelatin); format: cell-based, human; settings: DQ gelatin; CHO-K1 (FIG. 13) or COS1 cells (FIG. 22)
Procedure: Two different in situ gelatin degrading assays were performed. One used DQ™ gelatin (Molecular Probes, Inc., OR, USA). DQ gelatin is a fluorescence-quenched gelatin substrate, and will fluoresce upon proteolytic cleavage. Glass cover slips were coated with 5% DQ™ gelatin in a 10 mg/ml unlabeled gelatin solution, and dried. Transfected cells were cultured on the cover slip in a humidified chamber for 16 hrs. The cells were then fixed with 3% para-formaldehyde and the degraded areas were visualized as those showing fluorescence.
The other assay used Alexa488-conjugated gelatin made with an Alexa488-labeling kit (Molecular Probes). The bottom surfaces of 4-well chamber slides (Nunc) were coated with Alexa488-conjugated gelatin according to the method of Yana, I. and Weiss, S. J., Mol. Biol. Cell, 11, 2387-2401, 2000. Transfected COS1 cells were cultured in the chamber slides for 16 hrs in a humidified culture incubator. The cells were then fixed with 3% para-formaldehyde in PBS, and the degraded area was analyzed under a fluorescence microscope. The degraded area was visualized as a dark, non-fluorescent area. Fluorescence images were analyzed using confocal microscopy (BioRad).
as §1, with “experiments. Identically transfected cells on the 24-well plate as shown in FIG. 14 were subjected to the reaction with purified proMMP-2 in a serum-free medium at 37° C. for 18 hrs. The cells and culture supernatants were respectively subjected to Western blotting analysis using a monoclonal anti-FLAG M2 antibody, and gelatin zymography analysis.” for “experiments.”

**Q.** Which results are given for “MT1Cat: MT1-MMP lacking the PEX domain (untagged)”?
**A.** activation of proMMP-2 by cells expressing the mutant (MT1-MMP [1]): cannot activate proMMP-2; co-immunoprecipitation with MT1-F (MT1-F): not MT1Cat was co-immunoprecipitated with MT1-F; gelatin degrading (proteolytic) activity of cells expressing the mutant (MT1-MMP [2]): retains its proteolytic activity
